Experimental data from ChEMBL document CHEMBL5608184, “Discovery and mechanistic insights into thieno[3,2-d]pyrimidine and heterocyclic fused pyrimidines inhibitors targeting tubulin for cancer therapy” (Eur J Med Chem, 2024).
Calls of active or inactive are those of the source. The rule behind the calls is not given here.

Legend:
A549 = assay: cells; settings: Homo sapiens, A549, 48 h
Description: Antiproliferative activity against human A549 cells incubated for 48 hrs by CCK8 assay

SK-OV-3 [1] = assay: Induction of apoptosis in human SK-OV-3 cells assessed as late apoptotic cells at 0.625 nM incubated for 48 hrs by Annexin V-APC-A/7-AAD-A staining based flow cytometry (reference value: 1.20 %); format: functional
SK-OV-3 [2] = assay: Inhibition of cell migration in human SK-OV-3 cells assessed as migration rate at 5 nM incubated for 24 hrs by wound healing assay relative to control; format: functional; parameters: scale not given: the % may be the effect or the level left
SK-OV-3 [3] = assay: Induction of apoptosis in human SK-OV-3 cells assessed as early apoptotic cells at 2.5 nM incubated for 48 hrs by Annexin V-APC-A/7-AAD-A staining based flow cytometry (reference value: 1.10 %); format: functional
Tubulin (Homo sapiens) [4] = target: T1, Tubulin (Homo sapiens) (UniProt P68371+Q9H4B7+P0DPH7+P68366+Q13509+Q71U36+P04350+Q3ZCM7+P07437+P68363+Q9BQE3+Q6PEY2+Q13885+Q9BVA1+Q9BUF5); assay: Inhibition of tubulin polymerization in human SK-OV-3 assessed as severe cell contraction at 2 nM incubated for 24 hrs by immunofluorescence based analysis
SK-OV-3 [5] = assay: Induction of apoptosis in human SK-OV-3 cells assessed as viable cells at 5 nM incubated for 48 hrs by Annexin V-APC-A/7-AAD-A staining based flow cytometry (reference value: 97.50 %); format: functional; settings: read-out: Activity
SK-OV-3 [6] = assay: Induction of apoptosis in human SK-OV-3 cells assessed as increase in cleaved caspase-9 level incubated for 48 hrs by Western blot analysis; format: functional, cell-based; settings: dose 0.625-5 nM
SK-OV-3 [7] = assay: Inhibition of cell migration in human SK-OV-3 cells assessed as migration rate at 0.625 nM incubated for 24 hrs by wound healing assay relative to control; format: functional; parameters: scale not given: the % may be the effect or the level left
HCC827 = assay: Antiproliferative activity against human HCC827 cells incubated for 48 hrs by CCK8 assay; format: functional, cell-based; settings: HCC827, 48 h
SK-OV-3 [8] = assay: Inhibition of cell migration in human SK-OV-3 cells assessed as relative wound density at 0.625 nM incubated for 24 hrs by wound healing assay (reference value: 61.61 %); format: functional; parameters: scale not given: the % may be the effect or the level left
SK-OV-3 [9] = assay: Inhibition of cell migration in human SK-OV-3 cells assessed as migration rate at 1.25 nM incubated for 24 hrs by wound healing assay relative to control; format: functional; parameters: scale not given: the % may be the effect or the level left
Tubulin (Homo sapiens) [10] = target: T1, Tubulin (Homo sapiens); assay: Inhibition of tubulin polymerization in human SK-OV-3 assessed as decrease in cell viability at 2 nM incubated for 24 hrs by immunofluorescence based analysis
SK-OV-3 [11] = assay: Induction of cell cycle arrest at G2/M phase in human SK-OV-3 cells assessed as increase in Cyclin B level incubated for 24 hrs by Western blot analysis; format: functional, cell-based; settings: dose 0.625-5 nM
SK-OV-3 [12] = assay: Antiproliferative activity against human SK-OV-3 cells incubated for 48 hrs by CCK8 assay; format: functional, cell-based; settings: SK-OV-3, 48 h
SK-OV-3 [13] = assay: Inhibition of colony formation in human SK-OV-3 cells incubated for 3 days by crystal violet staining based analysis; format: functional, cell-based; settings: dose 0.625-5 nM, time 3.0 day
SK-OV-3 [14] = assay: Induction of apoptosis in human SK-OV-3 cells assessed as increase in cleaved PARP level incubated for 48 hrs by Western blot analysis; format: functional, cell-based; settings: dose 0.625-5 nM
A2780 = assay: Antiproliferative activity against human A2780 cells incubated for 48 hrs by CCK8 assay; format: functional, cell-based; settings: A2780, 48 h
SK-OV-3 [15] = assay: Inhibition of cell migration in human SK-OV-3 cells assessed as migration rate at 2.5 nM incubated for 24 hrs by wound healing assay relative to control; format: functional; parameters: scale not given: the % may be the effect or the level left
SK-OV-3 [16] = assay: Induction of apoptosis in human SK-OV-3 cells assessed as decrease in Bcl-2 level incubated for 48 hrs by Western blot analysis; format: functional, cell-based; settings: dose 0.625-5 nM
SK-OV-3 [17] = assay: Induction of cell cycle arrest at G2/M phase in human SK-OV-3 cells at 2.5 nM incubated for 24 hrs by PI staining based flow cytometry (reference value: 30.13 %); format: functional
Tubulin (Homo sapiens) [18] = target: T1, Tubulin (Homo sapiens); assay: Inhibition of tubulin polymerization in human SK-OV-3 assessed as condensation of microtubule at cell periphery at 2 nM incubated for 24 hrs by immunofluorescence based analysis
SK-OV-3 [19] = assay: Induction of cell cycle arrest at G2/M phase in human SK-OV-3 cells assessed as decrease in Cdc-25c level incubated for 24 hrs by Western blot analysis; format: functional, cell-based; settings: dose 0.625-5 nM
[20] = Antiproliferative activity against Paclitaxel-resistant human A2780 cells incubated for 48 hrs by CCK8 assay; format: functional, cell-based; settings: Paclitaxel-resistant A2780, 48 h
Tubulin (Homo sapiens) [21] = target: T1, Tubulin (Homo sapiens); assay: Inhibition of tubulin polymerization in human SK-OV-3 assessed as disruption of microtubule cytoskeleton at 2 nM incubated for 24 hrs by immunofluorescence based analysis; format: cell-based
Sus scrofa = species: Sus scrofa; assay: Inhibition of porcine brain tubulin polymerization measured for 60 min by fluorescence based assay; settings: dose 10.0 µM
SK-OV-3 [22] = assay: Induction of apoptosis in human SK-OV-3 cells assessed as necrotic cells at 0.625 nM incubated for 48 hrs by Annexin V-APC-A/7-AAD-A staining based flow cytometry (reference value: 0.21 %); format: functional
SK-OV-3 [23] = assay: Induction of apoptosis in human SK-OV-3 cells assessed as increase in cleaved caspase-3 level incubated for 48 hrs by Western blot analysis; format: functional, cell-based; settings: dose 0.625-5 nM
SK-OV-3 [24] = assay: Induction of apoptosis in human SK-OV-3 cells assessed as late apoptotic cells at 1.25 nM incubated for 48 hrs by Annexin V-APC-A/7-AAD-A staining based flow cytometry (reference value: 1.22 %); format: functional
SK-OV-3 [25] = assay: Induction of cell cycle arrest at G2/M phase in human SK-OV-3 cells at 2.5 nM incubated for 24 hrs by PI staining based flow cytometry (reference value: 29.73 %); format: functional
SK-OV-3 [26] = assay: Induction of apoptosis in human SK-OV-3 cells assessed as viable cells at 2.5 nM incubated for 48 hrs by Annexin V-APC-A/7-AAD-A staining based flow cytometry (reference value: 97.17 %); format: functional; settings: read-out: Activity
SK-OV-3 [27] = assay: Induction of cell cycle arrest at G2/M phase in human SK-OV-3 cells at 0.625 nM incubated for 24 hrs by PI staining based flow cytometry (reference value: 29.73 %); format: functional
SK-OV-3 [28] = assay: Induction of apoptosis in human SK-OV-3 cells assessed as late apoptotic cells at 2.5 nM incubated for 48 hrs by Annexin V-APC-A/7-AAD-A staining based flow cytometry (reference value: 1.22 %); format: functional
SK-OV-3 [29] = assay: Induction of apoptosis in human SK-OV-3 cells assessed as late apoptotic cells at 5 nM incubated for 48 hrs by Annexin V-APC-A/7-AAD-A staining based flow cytometry (reference value: 1.22 %); format: functional
SK-OV-3 [30] = assay: Induction of apoptosis in human SK-OV-3 cells assessed as necrotic cells at 1.25 nM incubated for 48 hrs by Annexin V-APC-A/7-AAD-A staining based flow cytometry (reference value: 0.48 %); format: functional
SK-OV-3 [31] = assay: Inhibition of cell migration in human SK-OV-3 cells assessed as relative wound density at 2.5 nM incubated for 24 hrs by wound healing assay (reference value: 74.53 %); format: functional; parameters: scale not given: the % may be the effect or the level left
SK-OV-3 [32] = assay: Induction of cell cycle arrest at G2/M phase in human SK-OV-3 cells at 1.25 nM incubated for 24 hrs by PI staining based flow cytometry (reference value: 29.73 %); format: functional

Structure (SMILES)	IC50 (A549)	Activity (SK-OV-3 [2])	inhibition (Tubulin (Homo sapiens) [4])	Activity (SK-OV-3 [6])	Activity (SK-OV-3 [7])	IC50 (HCC827)	Activity (SK-OV-3 [9])	inhibition (Tubulin (Homo sapiens) [10])	Activity (SK-OV-3 [11])	IC50 (SK-OV-3 [12])	inhibition (SK-OV-3 [13])	Activity (SK-OV-3 [14])	IC50 (A2780)	Activity (SK-OV-3 [15])	Activity (SK-OV-3 [16])	inhibition (Tubulin (Homo sapiens) [18])	Activity (SK-OV-3 [19])	IC50 [20]	inhibition (Tubulin (Homo sapiens) [21])	inhibition (Sus scrofa)	further results
COc1ccc(N(C)c2nc(Cl)nc3ccn(C)c23)cc1	1.76 nM	56.82%	Active	Dose-Dependent Effect	102.55%	1.74 nM	94.75%	Active	Active	1.32 nM	Dose-Dependent Effect	Dose-Dependent Effect	1.56 nM	81.73%	Dose-Dependent Effect	Active	Active	2.26 nM	Active	Dose-Dependent Effect	Activity (SK-OV-3 [1]): 1.93%; Activity (SK-OV-3 [3]): 20.62%; viability at 0.005 µM (SK-OV-3 [5]): 54%; Activity (SK-OV-3 [8]): 58.03%; Activity (SK-OV-3 [17]): 52.19%; Activity (SK-OV-3 [22]): 0.33%; Activity (SK-OV-3 [23]): Dose-Dependent Effect
COc1ccc2c(c1)NC(=O)CN2c1nc(Cl)nc2ccsc12	0.84 nM	23.64%	Active	Dose-Dependent Effect	84.28%	0.34 nM	70.73%	Active	Active	0.31 nM	Dose-Dependent Effect	Dose-Dependent Effect	0.38 nM	50.2%	Dose-Dependent Effect	Active	Active	0.75 nM	Active	Dose-Dependent Effect	Activity (SK-OV-3 [24]): 4.64%; Activity (SK-OV-3 [25]): 88.2%; viability at 0.0025 µM (SK-OV-3 [26]): 53.9%; Activity (SK-OV-3 [27]): 41.72%; Activity (SK-OV-3 [28]): 4.71%; Activity (SK-OV-3 [29]): 4.63%; Activity (SK-OV-3 [30]): 2.6%; Activity (SK-OV-3 [31]): 9.35%; Activity (SK-OV-3 [32]): 85.13%; Activity (SK-OV-3 [23]): Dose-Dependent Effect
